Measurements taken from PMC5012908 (Acta biomaterialia, 2016).

Columns and labels:
[1] = Circular dichroism of β-peptide solutions; assay type: physicochemical; conditions: 0.1 mM peptide, 20 °C, consistent with 14-helicity without aggregation
[2] = read-out: IC50 (antifungal); isotonic glucose phosphate buffer; cited from earlier work

Q: For “Coumarin-linker-(ACHC-β^3hVal-β^3hLys)3 [β-peptide 1]”, which “CD minimum in methanol” value [1] is on record?
A: 214 nm

Q: For magainin-2, which IC50 [2] is on record?
A: 300 nM
